In patent US8952024B2, “Herbicidal pyrimidone derivatives” (E I du Pont de Nemours and Company, priority 2009, dated 2015):

Experiments:
Assay in all cases: Test B pre-/postemergence plant response
Assay type in all cases: in vivo
[1] = system: large crabgrass (Digitaria sanguinalis)
In short: (§1)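 Seeds sown in loam–sand blend were treated preemergence, and plants at 2–18 cm (1- to 4-leaf stage) in peat-based medium were treated postemergence; compounds were formulated in non-phytotoxic solvent with surfactant. After 13–15 days in greenhouse, response was visually rated against controls, 0 (no effect) to 100 (complete control).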

[2] = system: Italian ryegrass (Lolium multiflorum)
In short: as §1

[3] = system: woolly cupgrass (Eriochloa villosa)
In short: as §1

[4] = system: ragweed (common ragweed, Ambrosia elatior)
In short: as §1

[5] = system: yellow nutsedge (Cyperus esculentus)
In short: as §1

[6] = system: green foxtail (Setaria viridis)
In short: as §1

[7] = system: downy bromegrass (Bromus tectorum)
In short: as §1

[8] = system: lambsquarters (Chenopodium album)
In short: as §1

[9] = system: velvetleaf (Abutilon theophrasti)
In short: as §1

[10] = system: pigweed (Amaranthus retroflexus)
In short: as §1

[11] = system: goosegrass (Eleusine indica)
In short: as §1

[12] = system: wheat (Triticum aestivum)
In short: as §1

[13] = system: Surinam grass (Brachiaria decumbens)
In short: as §1

[14] = Postemergence, 31 g ai/ha, 0 to 100 scale (0 no effect, 100 complete control)
[15] = Postemergence, 62 g ai/ha, scale 0 to 100 (0 no effect, 100 complete control)
[16] = Postemergence, 125 g ai/ha, scale 0 (no effect) to 100 (complete control), 13 to 15 days
[17] = Postemergence, 250 g ai/ha, scale 0 to 100 (0 no effect, 100 complete control), 13 to 15 days
[18] = Preemergence, 31 g ai/ha, scale 0 to 100 (0 no effect, 100 complete control)
[19] = Preemergence, 62 g ai/ha, scale 0 to 100 (0 no effect, 100 complete control)
[20] = Preemergence, 125 g ai/ha, scale 0 to 100, 0 no effect, 100 complete control
[21] = Preemergence, 250 g ai/ha, 0 to 100 scale

CCc1ccccc1-n1c(-c2ccccc2)ncc(C(=O)C2=C(O)CCCC2=O)c1=O [Compound 255]
Plant response rating, Crabgrass, Large [1, 14]: 85
Plant response rating, Crabgrass, Large [1, 15]: 85
Plant response rating, Crabgrass, Large [1, 16]: 90
Plant response rating, Crabgrass, Large [1, 17]: 95
Plant response rating, Crabgrass, Large [1, 18]: 80
Plant response rating, Crabgrass, Large [1, 19]: 95
Plant response rating, Crabgrass, Large [1, 20]: 100
Crabgrass, Large plant response rating [1, 21]: 100
Plant response rating, Ryegrass, Italian [2, 14]: 10
Plant response rating, Ryegrass, Italian [2, 15]: 30
Plant response rating, Ryegrass, Italian [2, 16]: 30
Plant response rating, Ryegrass, Italian [2, 17]: 80
Plant response rating, Ryegrass, Italian [2, 18]: 0
Plant response rating, Ryegrass, Italian [2, 19]: 0
Plant response rating, Ryegrass, Italian [2, 20]: 10
Ryegrass, Italian plant response rating [2, 21]: 30
Plant response rating, Cupgrass, Woolly [3, 14]: 85
Plant response rating, Cupgrass, Woolly [3, 15]: 95
Plant response rating, Cupgrass, Woolly [3, 16]: 95
Plant response rating, Cupgrass, Woolly [3, 17]: 98
Plant response rating, Cupgrass, Woolly [3, 18]: 0
Plant response rating, Cupgrass, Woolly [3, 19]: 10
Plant response rating, Cupgrass, Woolly [3, 20]: 75
Cupgrass, Woolly plant response rating [3, 21]: 90
Plant response rating, Ragweed [4, 14]: 50
Plant response rating, Ragweed [4, 15]: 90
Plant response rating, Ragweed [4, 16]: 95
Plant response rating, Ragweed [4, 17]: 95
Plant response rating, Ragweed [4, 18]: 65
Plant response rating, Ragweed [4, 19]: 75
Plant response rating, Ragweed [4, 20]: 85
Ragweed plant response rating [4, 21]: 100
Plant response rating, Nutsedge, Yellow [5, 14]: 10
Plant response rating, Nutsedge, Yellow [5, 15]: 15
Plant response rating, Nutsedge, Yellow [5, 16]: 15
Plant response rating, Nutsedge, Yellow [5, 17]: 60
Plant response rating, Nutsedge, Yellow [5, 18]: 10
Plant response rating, Nutsedge, Yellow [5, 19]: 25
Plant response rating, Nutsedge, Yellow [5, 20]: 40
Nutsedge, Yellow plant response rating [5, 21]: 90
Plant response rating, Foxtail, Green [6, 14]: 85
Plant response rating, Foxtail, Green [6, 15]: 90
Plant response rating, Foxtail, Green [6, 16]: 90
Plant response rating, Foxtail, Green [6, 17]: 90
Plant response rating, Foxtail, Green [6, 18]: 0
Plant response rating, Foxtail, Green [6, 19]: 80
Plant response rating, Foxtail, Green [6, 20]: 80
Foxtail, Green plant response rating [6, 21]: 100
Plant response rating, Bromegrass, Downy [7, 14]: 50
Plant response rating, Bromegrass, Downy [7, 15]: 60
Plant response rating, Bromegrass, Downy [7, 16]: 80
Plant response rating, Bromegrass, Downy [7, 17]: 85
Plant response rating, Bromegrass, Downy [7, 18]: 0
Plant response rating, Bromegrass, Downy [7, 19]: 0
Plant response rating, Bromegrass, Downy [7, 20]: 0
Bromegrass, Downy plant response rating [7, 21]: 40
Plant response rating, Lambsquarters [8, 14]: 90
Plant response rating, Lambsquarters [8, 15]: 95
Plant response rating, Lambsquarters [8, 16]: 98
Plant response rating, Lambsquarters [8, 17]: 100
Plant response rating, Lambsquarters [8, 18]: 98
Plant response rating, Lambsquarters [8, 19]: 100
Plant response rating, Lambsquarters [8, 20]: 100
Lambsquarters plant response rating [8, 21]: 100
Plant response rating, Velvetleaf [9, 14]: 95
Plant response rating, Velvetleaf [9, 15]: 98
Plant response rating, Velvetleaf [9, 16]: 98
Plant response rating, Velvetleaf [9, 17]: 100
Plant response rating, Velvetleaf [9, 18]: 80
Plant response rating, Velvetleaf [9, 19]: 95
Plant response rating, Velvetleaf [9, 20]: 98
Velvetleaf plant response rating [9, 21]: 100
Plant response rating, Pigweed [10, 14]: 80
Plant response rating, Pigweed [10, 15]: 98
Plant response rating, Pigweed [10, 16]: 98
Plant response rating, Pigweed [10, 17]: 100
Plant response rating, Pigweed [10, 18]: 100
Plant response rating, Pigweed [10, 19]: 100
Plant response rating, Pigweed [10, 20]: 100
Pigweed plant response rating [10, 21]: 100
Plant response rating, Goosegrass [11, 14]: 90
Plant response rating, Goosegrass [11, 15]: 90
Plant response rating, Goosegrass [11, 16]: 95
Plant response rating, Goosegrass [11, 17]: 98
Plant response rating, Goosegrass [11, 18]: 80
Plant response rating, Goosegrass [11, 19]: 98
Plant response rating, Goosegrass [11, 20]: 100
Goosegrass plant response rating [11, 21]: 100
Plant response rating, Wheat [12, 14]: 35
Plant response rating, Wheat [12, 15]: 40
Plant response rating, Wheat [12, 16]: 50
Plant response rating, Wheat [12, 17]: 80
Plant response rating, Wheat [12, 18]: 0
Plant response rating, Wheat [12, 19]: 0
Plant response rating, Wheat [12, 20]: 0
Wheat plant response rating [12, 21]: 5
Plant response rating, Surinam Grass [13, 14]: 80
Plant response rating, Surinam Grass [13, 15]: 80
Plant response rating, Surinam Grass [13, 16]: 90
Plant response rating, Surinam Grass [13, 17]: 90
Plant response rating, Surinam Grass [13, 18]: 65
Plant response rating, Surinam Grass [13, 19]: 85
Plant response rating, Surinam Grass [13, 20]: 95
Surinam Grass plant response rating [13, 21]: 100
